Patent US10934277B2, “Enantiomerically purified GPER agonist for use in treating disease states and conditions” (Linnaeus Therapeutics, Inc., priority 2018, dated 2021)
“And” between values parts separate entries of the source, which are not always exact repeats. Equal values may be shown once.

How the values were obtained:
[1] = Plasma concentration of SRR G-1 in rats after oral dosing (LC-MS/MS); assay type: in vivo; details: rat, individual animals (R1-R9); for Plasma Conc.: PO 10 mg/kg, listed as SRR G-1 Free Base
Source text: The results are shown in Tables 22-24 for each respectively.

[2] = LogD7.4 by shake-flask method (pH 7.4 phosphate buffer / n-octanol); assay type: physicochemical; details: for Concentration in pH buffer 7.4: aqueous phase
Procedure: Log D7.4 was measured with the solvent systems of pH 7.4 phosphate buffer and n-octanol by shake-flask method.

[3] = pKa titration test; assay type: physicochemical; details: range of 3-11
[4] = biological target: T1, AR (Homo sapiens, UniProt P10275); assay: Off target selectivity assay, Nuclear Hormone Receptor AR
T1 sequence (P10275 1-920): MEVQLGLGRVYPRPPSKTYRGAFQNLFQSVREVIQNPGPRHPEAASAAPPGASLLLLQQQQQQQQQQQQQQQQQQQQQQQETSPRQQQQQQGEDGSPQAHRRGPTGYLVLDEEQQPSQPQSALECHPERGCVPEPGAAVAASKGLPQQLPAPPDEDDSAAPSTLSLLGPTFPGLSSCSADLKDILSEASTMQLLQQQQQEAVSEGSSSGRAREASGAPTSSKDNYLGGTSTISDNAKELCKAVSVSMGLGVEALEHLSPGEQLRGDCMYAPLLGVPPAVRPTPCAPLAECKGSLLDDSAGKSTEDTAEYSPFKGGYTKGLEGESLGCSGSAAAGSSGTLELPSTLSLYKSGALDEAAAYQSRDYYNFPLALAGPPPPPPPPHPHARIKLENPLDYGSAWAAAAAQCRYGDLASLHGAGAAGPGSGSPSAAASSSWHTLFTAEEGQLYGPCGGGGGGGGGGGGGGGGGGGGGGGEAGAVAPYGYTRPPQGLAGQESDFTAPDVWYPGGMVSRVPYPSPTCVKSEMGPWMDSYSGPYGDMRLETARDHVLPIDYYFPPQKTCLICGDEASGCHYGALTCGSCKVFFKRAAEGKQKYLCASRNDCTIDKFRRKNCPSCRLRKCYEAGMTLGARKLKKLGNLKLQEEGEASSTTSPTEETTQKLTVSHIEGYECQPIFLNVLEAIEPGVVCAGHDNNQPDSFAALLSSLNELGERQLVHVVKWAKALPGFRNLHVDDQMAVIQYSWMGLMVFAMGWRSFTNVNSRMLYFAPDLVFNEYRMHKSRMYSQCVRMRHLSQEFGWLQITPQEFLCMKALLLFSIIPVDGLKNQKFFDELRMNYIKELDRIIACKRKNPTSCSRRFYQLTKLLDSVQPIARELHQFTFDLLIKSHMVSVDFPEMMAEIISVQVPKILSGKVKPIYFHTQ

[5] = shake-flask, single samples #1-3

concentration at 1 h ([1]; male, plasma, po, 10 mg/kg, time 1.00 h, read-out: Plasma Conc.) [µg/mL] | concentration at 8 h ([1]; male, plasma, po, 10 mg/kg, time 8.00 h, read-out: Plasma Conc.) [µg/mL] | concentration at 24 h ([1]; male, plasma, po, 10 mg/kg, time 24.0 h, LLOQ 0.100 ng/mL, read-out: Plasma Conc.) [µg/mL] | Plasma Conc. ([1]; time 0.500 h) | Plasma Conc. ([1]; time 1.00 h) | Plasma Conc. ([1]; time 2.00 h) | Plasma Conc. ([1]; time 4.00 h) | Plasma Conc. ([1]; time 8.00 h) | Plasma Conc. ([1]; time 24.0 h, LLOQ 0.100 ng/mL) | LogP* ([2]; LogP = LogD(pH) + Log [1 + 10^(pKa −pH)]) | logP ([2]; n-octanol / pH 7.4 phosphate buffer, pH 7.4, LogP = LogD(pH) + Log [1 + 10^(pKa −pH)]) | logD ([2]; n-octanol / pH 7.4 phosphate buffer, shake-flask, pH 7.4 phosphate buffer and n-octanol) | Concentration in pH buffer 7.4 [2, 5] [μg/mL] | Concentration in pH buffer 7.4 ([2]; shake-flask, single samples #1-3, listed as SRR G-1 freebase) [μg/mL] | Average of LogD7.4 ([2]; shake-flask, pH 7.4 phosphate buffer and n-octanol) | Concentration in n-octanol [2, 5] | LogD7.4 [2, 5] | pKa by titration [3] | IC50 [4] [µM] | Compound
0.00396 | 0.00172 | 0.000127 | 1.91 ng/mL and 2.60 ng/mL and 1.23 ng/mL | 6.03 ng/mL and 3.15 ng/mL | 2.96 ng/mL and 7.56 ng/mL and 2.71 ng/mL | 2.18 ng/mL and 4.67 ng/mL and 1.39 ng/mL | 1.58 ng/mL and 1.47 ng/mL | 0.169 ng/mL and BQL | >3.22 | > 3.22 | > 3.22 | <0.82 | < 0.82 | > 3.22 | 1370 µg/mL and 1340 µg/mL | >3.22 and >3.21 | no pKa value was observed | – | CC(=O)c1ccc2c(c1)[C@@H]1C=CC[C@@H]1[C@H](c1cc3c(cc1Br)OCO3)N2 (single isomer, unassigned) [SRR G-1]
– | – | – | – | – | – | – | – | – | – | – | – | – | – | – | – | – | – | 4.76 | CC(=O)c1ccc2c(c1)[C@H]1C=CC[C@H]1[C@@H](c1cc3c(cc1Br)OCO3)N2 [RSS G-1, 1-((3aR,4S,9bS)-4-(6-bromobenzo[d][1,3]dioxol-5-yl)-3a,4,5,9b-tetrahydro-3H-cyclopenta[c]quinolin-8-yl)ethan-1-one]
